Results: patent US8354447B2, “mGLU receptors antagonists for treating disorders associated with mGLU receptors including addiction and depression” (The Scripps Research Institute, priority 2002, dated 2013)

Key:
[1] = test system: male Wistar rats; assay: Nicotine self-administration and food-maintained responding on a fixed ratio schedule in rats; type: in vivo, rat
Procedure: Two additional groups of rats were allowed to respond for food (45 mg Noyes food pellet) under a FR5 TO20 sec (n=10), and a FR5 TO210 sec (n=10) schedule. The two different schedules were employed to allow assessment of the effects of MPEP on responding for food under a reinforcement schedule (FR5 TO20 sec) identical to that used for nicotine, and under a reinforcement schedule (FR5 TO210) that equated response rates for food to those seen for nicotine. […] All test sessions were conducted for one hour per day, five days per week.
After acquiring stable nicotine self-administration at either 0.01 mg/kg/infusion (n=9) or 0.03 mg/kg/infusion (n=9), or stable food-maintained responding on the FR5 TO 20 sec schedule (n=10) or the FR5 TO210 sec schedule (n=10), drug testing was initiated. MPEP (0, 1, 3 and 9 mg/kg) was administered intraperitoneally 30 minutes before the session, according to a Latin Square design, with at least six days elapsing between each test dose.

[2] = test system: Male DBA/2J mice; assay: Intravenous nicotine self-administration in drug-naive mice; type: in vivo, mouse
Procedure: Acute self-administration of nicotine was carried out using a previously described method (Semenova et al. 1995, 1999; Kuzmin et al. 1996a, 1997). The tails of the mice were fixed to the surface of the apparatus during the testing sessions to allow drug delivery; the fixing of the tail allowed the mice to move all of their four paws, head and entire body. […] The only cue associated with the delivery of the drug or vehicle infusion was the noise of the pump. Mice were tested either once or twice, with approximately one month between each test. The second test only occurred in a subset of the original set of mice (2-7 pairs of mice from each of the original groups). This was done to increase the number of subjects/condition, and involved randomly assigning and testing these mice under a different set of conditions than in the original test (i.e., different nicotine and/or MPEP dose).
Saline or one of four nicotine doses (0.016, 0.048, 0.16, 0.48 μg/inf) were made available to different groups of animals. Each group consisted of 9-17 pairs of animals, including 2-7 mice per group that had previously undergone one testing session at least one month previously (see above). Pre-treatment with MPEP (0, 5, 10, 20 mg/kg intraperitoneally) occurred 15 minutes prior to the initiation of the test session.
Data analyses were based on the comparison of both active and passive mouse nose-pokes in each pair, using the formula: R=log(AT/PT)−log(ABL/PBL), where (AT/PT) is the ratio of the total number of active versus passive mouse nose-pokes during the 30-min test, and (ABL/PBL) is the ratio of the total number of active versus passive mouse nose-pokes during the 10-min pre-test. […] Some data-points (9/237 pairs of mice) were excluded from the final analyses based on whether or not they lay within 2 standard deviations of the group mean for that specific condition. Nicotine self-administration data, obtained after saline pre-treatment, were analyzed using a one-way ANOVA with nicotine (4 levels) defined as the between-subjects factor. R-criterion data were analyzed using two-way ANOVAs with MPEP dose (4 levels) and nicotine dose (4 levels) defined as the between-subjects factors. Pre-planned R-criterion data analyses were performed using one-way ANOVAs for each available dose of self-administered nicotine and saline, with MPEP dose (4 levels) defined as the between-subject factor. Appropriate individual comparisons were performed using the Student-Newman-Keuls post hoc test. […] Body weights and pre-test nose-poke activity levels were analyzed with three-way ANOVAs (nicotine dose, MPEP dose and mouse, i.e. active/passive, defined as between-subjects factors).

[3] = MPEP 5 mg/kg, Nicotine 0 μg/inf
[4] = MPEP 5 mg/kg, Nicotine 0.016 μg/inf
[5] = MPEP 5 mg/kg, Nicotine 0.048 μg/inf
[6] = MPEP 5 mg/kg, Nicotine 0.16 μg/inf
[7] = MPEP 5 mg/kg, Nicotine 0.48 μg/inf
[8] = MPEP 10 mg/kg, Nicotine 0 μg/inf
[9] = MPEP 10 mg/kg, Nicotine 0.016 μg/inf
[10] = MPEP 10 mg/kg, Nicotine 0.048 μg/inf
[11] = MPEP 10 mg/kg, Nicotine 0.16 μg/inf
[12] = MPEP 10 mg/kg, Nicotine 0.48 μg/inf
[13] = MPEP 20 mg/kg, Nicotine 0 μg/inf
[14] = MPEP 20 mg/kg, Nicotine 0.016 μg/inf
[15] = MPEP 20 mg/kg, Nicotine 0.048 μg/inf
[16] = MPEP 20 mg/kg, Nicotine 0.16 μg/inf
[17] = MPEP 20 mg/kg, Nicotine 0.48 μg/inf

SMILES: Cc1cccc(C#Cc2ccccc2)n1 [MPEP, 2-methyl-6-(phenylethynyl)-pyridine]
- Number of reinforcers earned during the entire 1 hour session ([1]; 1 mg/kg MPEP, 0.01 mg/kg/inf nic, FR5 TO20 sec): 21 ± 3.1
- Number of reinforcers earned during the entire 1 hour session ([1]; 1 mg/kg MPEP, 0.03 mg/kg/inf nic, FR5 TO20 sec): 13 ± 1.9
- Number of reinforcers earned during the entire 1 hour session ([1]; 1 mg/kg MPEP, 45 mg food pellet, FR5 TO20 sec): 131.3 ± 8.2
- Number of reinforcers earned during the entire 1 hour session ([1]; 1 mg/kg MPEP, 45 mg food pellet, FR5 TO210 sec): 16.3 ± 0.3
- Number of reinforcers earned during the entire 1 hour session ([1]; 3 mg/kg MPEP, 0.01 mg/kg/inf nic, FR5 TO20 sec): 11 ± 2.7
- Number of reinforcers earned during the entire 1 hour session ([1]; 3 mg/kg MPEP, 0.03 mg/kg/inf nic, FR5 TO20 sec): 11.4 ± 1.2
- Number of reinforcers earned during the entire 1 hour session ([1]; 3 mg/kg MPEP, 45 mg food pellet, FR5 TO20 sec): 122.2 ± 7.4
- Number of reinforcers earned during the entire 1 hour session ([1]; 3 mg/kg MPEP, 45 mg food pellet, FR5 TO210 sec): 15.2 ± 0.5
- Number of reinforcers earned during the entire 1 hour session ([1]; 9 mg/kg MPEP, 0.01 mg/kg/inf nic, FR5 TO20 sec): 9.1 ± 3.0
- Number of reinforcers earned during the entire 1 hour session ([1]; 9 mg/kg MPEP, 0.03 mg/kg/inf nic, FR5 TO20 sec): 4.8 ± 1.5
- Number of reinforcers earned during the entire 1 hour session ([1]; 9 mg/kg MPEP, 45 mg food pellet, FR5 TO20 sec): 109 ± 12.98
- Number of reinforcers earned during the entire 1 hour session ([1]; 9 mg/kg MPEP, 45 mg food pellet, FR5 TO210 sec): 15.2 ± 0.6
- nicotine self-administration ([1]; 3 and 9 mg/kg MPEP, 0.01 mg/kg/infusion nicotine): significantly reduced self-administration of the 0.01 mg/kg/infusion nicotine dose relative to the vehicle condition
- nicotine self-administration ([1]; MPEP 1, 3, 9 mg/kg, 0.03 mg/kg/inf nicotine): decreasing self-administration of the 0.03 mg/kg/inf dose only at 9 mg/kg
- inactive lever presses ([1]; MPEP 1-9 mg/kg): no effect of MPEP on inactive lever presses for any of the reinforcers
- total self-injected nicotine dose ([2]; 0.048 μg/inf nicotine): no significant effect of MPEP on total self-injected nicotine dose
- R-criterion ([2]; 20 mg/kg MPEP, 0.048 μg/inf nicotine): a trend for 20 mg/kg MPEP to decrease the R-criterion below zero
- nose-pokes, active pre-test [2, 3]: 8.19 ± 1.03 responses per minute
- nose-pokes, active test [2, 3]: 4.99 ± 1.17 responses per minute
- nose-pokes, passive pre-test [2, 3]: 8.38 ± 0.96 responses per minute
- nose-pokes, passive test [2, 3]: 6.41 ± 1.38 responses per minute
- nose-pokes, active pre-test [2, 4]: 7.86 ± 0.87 responses per minute
- nose-pokes, active test [2, 4]: 2.62 ± 0.49 responses per minute
- nose-pokes, passive pre-test [2, 4]: 8.01 ± 0.91 responses per minute
- nose-pokes, passive test [2, 4]: 3.46 ± 0.74 responses per minute
- nose-pokes, active pre-test [2, 5]: 9.13 ± 1.37 responses per minute
- nose-pokes, active test [2, 5]: 3.43 ± 0.67 responses per minute
- nose-pokes, passive pre-test [2, 5]: 8.93 ± 1.36 responses per minute
- nose-pokes, passive test [2, 5]: 4.45 ± 1.06 responses per minute
- nose-pokes, active pre-test [2, 6]: 8.32 ± 0.94 responses per minute
- nose-pokes, active test [2, 6]: 4.67 ± 0.95 responses per minute
- nose-pokes, passive pre-test [2, 6]: 8.48 ± 3.31 responses per minute
- nose-pokes, passive test [2, 6]: 4.32 ± 2.37 responses per minute
- nose-pokes, active pre-test [2, 7]: 8.12 ± 1.17 responses per minute
- nose-pokes, active test [2, 7]: 3.04 ± 0.73 responses per minute
- nose-pokes, passive pre-test [2, 7]: 8.58 ± 1.38 responses per minute
- nose-pokes, passive test [2, 7]: 3.25 ± 0.88 responses per minute
- nose-pokes, active pre-test [2, 8]: 7.95 ± 0.99 responses per minute
- nose-pokes, active test [2, 8]: 4.92 ± 1.1 responses per minute
- nose-pokes, passive pre-test [2, 8]: 8.00 ± 1.06 responses per minute
- nose-pokes, passive test [2, 8]: 5.86 ± 1.56 responses per minute
- nose-pokes, active pre-test [2, 9]: 7.79 ± 0.83 responses per minute
- nose-pokes, active test [2, 9]: 6.48 ± 1.05 responses per minute
- nose-pokes, passive pre-test [2, 9]: 8.22 ± 0.87 responses per minute
- nose-pokes, passive test [2, 9]: 4.26 ± 0.94 responses per minute
- nose-pokes, active pre-test [2, 10]: 7.43 ± 0.98 responses per minute
- nose-pokes, active test [2, 10]: 3.92 ± 1.18 responses per minute
- nose-pokes, passive pre-test [2, 10]: 8.06 ± 1.39 responses per minute
- nose-pokes, passive test [2, 10]: 5.83 ± 1.72 responses per minute
- nose-pokes, active pre-test [2, 11]: 7.12 ± 0.66 responses per minute
- nose-pokes, active test [2, 11]: 4.19 ± 0.81 responses per minute
- nose-pokes, passive pre-test [2, 11]: 7.20 ± 0.69 responses per minute
- nose-pokes, passive test [2, 11]: 4.62 ± 0.82 responses per minute
- nose-pokes, active pre-test [2, 12]: 7.49 ± 0.86 responses per minute
- nose-pokes, active test [2, 12]: 3.58 ± 0.73 responses per minute
- nose-pokes, passive pre-test [2, 12]: 7.48 ± 0.88 responses per minute
- nose-pokes, passive test [2, 12]: 3.81 ± 0.47 responses per minute
- nose-pokes, active pre-test [2, 13]: 6.98 ± 1.18 responses per minute
- nose-pokes, active test [2, 13]: 5.96 ± 1.69 responses per minute
- nose-pokes, passive pre-test [2, 13]: 8.50 ± 1.43 responses per minute
- nose-pokes, passive test [2, 13]: 6.33 ± 1.66 responses per minute
- nose-pokes, active pre-test [2, 14]: 7.10 ± 0.87 responses per minute
- nose-pokes, active test [2, 14]: 5.48 ± 1.09 responses per minute
- nose-pokes, passive pre-test [2, 14]: 7.35 ± 0.85 responses per minute
- nose-pokes, passive test [2, 14]: 8.77 ± 1.85 responses per minute
- nose-pokes, active pre-test [2, 15]: 8.36 ± 1.07 responses per minute
- nose-pokes, active test [2, 15]: 3.56 ± 1.04 responses per minute
- nose-pokes, passive pre-test [2, 15]: 8.31 ± 1.28 responses per minute
- nose-pokes, passive test [2, 15]: 5.29 ± 1.11 responses per minute
- nose-pokes, active pre-test [2, 16]: 7.50 ± 1.25 responses per minute
- nose-pokes, active test [2, 16]: 5.06 ± 1.52 responses per minute
- nose-pokes, passive pre-test [2, 16]: 7.56 ± 1.32 responses per minute
- nose-pokes, passive test [2, 16]: 7.97 ± 1.76 responses per minute
- nose-pokes, active pre-test [2, 17]: 7.31 ± 0.98 responses per minute
- nose-pokes, active test [2, 17]: 4.67 ± 1.22 responses per minute
- nose-pokes, passive pre-test [2, 17]: 7.08 ± 0.94 responses per minute
- nose-pokes, passive test [2, 17]: 4.35 ± 0.98 responses per minute
- nicotine self-administration (R-criterion) ([2]; MPEP 5, 10, 20 mg/kg, 0.048 μg/inf nicotine): significantly reduced nicotine self-administration at all doses tested
- nose-poke responding ([2]; active mice, 0.048 μg/inf nicotine): significantly decreased nose-poke responding in the active mice
